The source of these data is paper PMC9964544, “Evidence of Insulin-Sensitizing and Mimetic Activity of the Sesquiterpene Quinone Avarone, a Protein Tyrosine Phosphatase 1B and Aldose Reductase Dual Targeting Agent from the Marine Sponge Dysidea avara” (Pharmaceutics, 2023).

The structures appear in SMILES notation. “Also recorded” adds a separate entry of the source.

Data set [1] deals with human microvascular endothelial cells (HMEC-1). The arrangement: method as in PMID 32075136. Particulars: ref [19]; read-out: IC50 cytotoxicity HMEC-1; cited from earlier work.
Data set [2] deals with T1, Human PTP1B (Homo sapiens, UniProt P18031).
T1 sequence (P18031 1-302): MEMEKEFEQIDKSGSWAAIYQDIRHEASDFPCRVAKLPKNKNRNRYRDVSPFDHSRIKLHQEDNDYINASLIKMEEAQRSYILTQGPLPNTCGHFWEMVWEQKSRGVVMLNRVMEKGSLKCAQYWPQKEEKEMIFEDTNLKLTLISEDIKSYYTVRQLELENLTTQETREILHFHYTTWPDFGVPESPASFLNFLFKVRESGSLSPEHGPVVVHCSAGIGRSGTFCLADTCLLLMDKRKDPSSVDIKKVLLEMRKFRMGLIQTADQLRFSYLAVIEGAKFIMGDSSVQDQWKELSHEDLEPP
The data set can be described thus: Kinetic analysis of PTP1B inhibition (Lineweaver-Burk plot, KM,app fit, dilution assay). Conditions: for Ki: fit of KM,app against avarone concentration, Equation (3).
Description: Equation (2) refers to a general case of a tight binding non-competitive inhibition model. […] The mechanism of action of avarone was evaluated by analyzing the effect of increasing avarone concentrations on the main kinetic parameters (KM and Vmax) of PTP1B. Data obtained were analyzed using the Lineweaver–Burk plot. The value of Ki was determined using the appropriate equations.
The second inhibitor molecule (IB) can only bind to EIA, generating the ternary complex (EIAIB). Considering the prevailing rapid equilibrium conditions, it was possible to derive Equation (3), which describes the dependence of KM on the avarone concentration. […] (3) KM,app=KM×{1+[I]/KiA+[I]^2/KiA×KiB}
Figure 4 Impact of avarone on PTP1B-catalyzed hydrolysis of pNPP: the Lineweaver–Burk plot. Data reported in the figure were obtained by measuring the initial hydrolysis rate of pNPP at seven different concentrations, in the presence of increasing concentration of avarone. The concentrations of avarone used were: 0 µM, (●); 4 µM, (☐); 5.5 µM, (▲); 7 µM (▽). Each test was carried out in triplicate. Data reported in the figure represent the mean value ± SD.
Figure 5 Determination of KiA and KiB for avarone. Dependence of KM,app from the avarone concentration. Data obtained were fitted using Equation (3). Data fitting was obtained using OriginPlus 2021 software.
Dilution assay. An aliquot of PTP1B was incubated for 1 h at 37°C in the
presence of saturating concentration (50 µM) of avarone (2). A control test was prepared
diluting PTP1B solution with the same volume of DMSO, the solvent used to dissolve 2.
After 1 h, an aliquot of samples was withdrawn and diluted 400 fold in buffer assay to
evaluate the residual activity of the enzyme. All tes ts were carried out in triplicate. Data
obtained were normalized respect to control sample.
Dependence of K M and Vmax from avarone (2) concentration. The concentration
of avarone used were: 0, 4.0, 5.5, and 7.0 µM. To calculate both K M and Vmax valued, we
determined the initial hydrolysis rate at seven different substrate (pNPP) concentrations
(0.5, 1, 2 4, 8 16 , 25 mM). Experimental data were fitted with Michaelis -Menten equation
using OriginPro 2021 software

Data set [3] concerns C2C12 cells. Description: Akt phosphorylation in C2C12 cells by Western blot. In kind it is cell-based. Particulars: 30 min, serum-starved C2C12. On the procedure:
To evaluate the impact of avarone (2) on the insulin signaling pathway, C2C12 cells were plated on P35 dishes and grown until 70% confluence. Then, cells were washed with phosphate-buffered saline (PBS) and incubated for 24 h in the presence of a starvation medium (DMEM high glucose containing 2 mM glutamine, 100 U/mL of penicillin, and 100 μg/mL of streptomycin). After this time, cells were stimulated for 30 min with 10 nM insulin (Humulin R, Ely Lilly, Italy) with avarone (2) or the insulin-avarone combination. […] Phosphorylation levels of the insulin receptor β chain and of the kinase Akt were evaluated using specific antibodies: IR β subunit, clone CT-3 (MABS65) was from Santa Cruz Biotechnology (Santa Cruz, CA, USA); pIR β subunit, Y1162/1163 (sc-25103-R) was from Merck-Millipore (Burlington, MA, USA). […] Quantitation of the images obtained was carried out using iBright Analysis Software (Thermo Fisher Scientific 168 Third Avenue Waltham, MA, USA, 02451). Glucose uptake was evaluated as previously described. […] Intrinsic and 2-NBDG-derived cell fluorescences were determined using a flow cytometer (FACSCanto II, BD Biosciences, San Jose, CA, USA). […] Quantitative analysis was carried out using FlowJo software (FlowJo^TM v10. BD FlowJo™ Software for Windows Version 10. Ashland, OR: Becton, Dickinson and Company; 2021). […]
Background: Immunoblotting shows a protein as a band on a membrane.

Data set [4] has as its target T2, human recombinant AKR1B1 (Homo sapiens, UniProt P15121).
T2 construct: made in house
Description: AKR1B1 inhibition assay with L-idose as substrate, NADPH oxidation (IC50). The format is biochemical. Particulars: 10 mU AKR1B1, 1.6 mM L-idose, 37 °C; IC50 ± SD. On the procedure: The purification of human recombinant AKR1B1 was performed as previously described. […] The purified enzyme, stored at −80 °C in 10 mM sodium phosphate buffer pH 7.0 containing 2 mM DTT and 30% (w/v) glycerol, was extensively dialyzed against 10 mM sodium phosphate buffer pH 7.0 before use. […] The fractions containing PTP1B were collected, concentrated, and injected into a Superdex G75 column equilibrated with Tris-HCl buffer pH 8.0 containing 150 mM NaCl and 1 mM mercaptoethanol. The fractions containing PTP1B were collected and concentrated; the purity of preparation was evaluated using SDS-PAGE. The PTP1B preparation was split into fractions of 0.5 mL volume; each fraction was stored at −80 °C.
The standard assay mixture (final volume 0.7 mL) was contained in 0.25 M sodium phosphate buffer pH 6.8, 0.18 mM NADPH, 0.4 M ammonium sulfate, 0.5 mM EDTA, and 4.7 mM GAL. One unit of enzyme activity is the amount of enzyme that catalyzes the conversion of 1 µmol of substrate/min in the above assay conditions. The same assay conditions were adopted in the inhibition studies using L-idose as the substrate at the indicated concentrations. PTP1B activity was determined using p-nitrophenylphosphate (pNPP) as the synthetic substrate. The pNPP was dissolved in 0.075 M ββ-dimethylglutarate buffer, pH 7.0, containing 1 mM dithiothreitol. Each assay was carried out at 37 °C in 1 mL of assay buffer. The reactions were started by diluting an aliquot of PTP1B preparation in the assay buffer; after 30 min, the reactions were stopped by adding 2 mL of 0.2 M KOH solution. The amount of p-nitrophenol released was determined spectrophotometrically, reading the absorbance of solutions at 400 nm (ε400nm = 18 mM^−^1cm^−^1).

The IC50 is the concentration that gives 50% inhibition. Regarding `CC1=CCC[C@H]2[C@](C)(CC3=CC(=O)C=CC3=O)[C@@H](C)CC[C@]12C` [avarone (2), avarone], the IC50 in data set [1] is 62.2 µM; in data set [4] it was 0.078 ± 0.017 µM. The “reversibility of PTP1B inhibition (dilution assay)” value in data set [2] (50 µM avarone, 1 h at 37°C, diluted 400 fold) is reported as “reversible inhibitor”. The Ki turned out to be 15.1 ± 1.4 µM in data set [2] (KiA PTP1B (first inhibitor molecule)) and 1 ± 0.1 µM in data set [2] (KiB PTP1B (second inhibitor molecule, binds EIA)). For the same molecule, the “type of PTP1B inhibition” value in data set [2] (pNPP, 0-7 µM avarone, double reciprocal plot) was “competitive inhibitor; also recorded: cooperative pure competitive inhibition by two non-exclusive inhibitor molecules”. Further, the “Akt phosphorylation levels, insulin-avarone combination” value in data set [3] (25 µM avarone + 10 nM insulin) is recorded as “values higher than those observed after treatment with insulin alone”. Further, the Akt phosphorylation levels entry in data set [3] (25 µM avarone alone) is “increase in Akt phosphorylation levels similar to that induced by insulin”.
